Reference: patent US9895346B2, “Applications of substituent benzyloxy group containing ether compounds for preparing antitumor drugs” (Sinochem Corporation, priority 2013, dated 2018)

Key:
[1] = test system: lung cancer cell line A549; test: In vitro cell inhibition assay (crystal violet), lung cancer A549; format: cell-based, human
From the text: (§1) In vitro Cell inhibition assay is as follows:
(§2) The human cancer cell lines used for this assay were bladder cancer J82, T24, prostate cancer LNCap, PC-3, lung cancer A549, H157, H460, H520, colon cancer HCT8, HCT116, RkO, and leukemia HL-60, etc.
(§3) In vitro cell culture technology was selected for the determination of inhibition rate bladder cancer cell lines J82 and T24, prostate cancer cell lines LNCap and PC-3, lung cancer cell lines A549, H157, H460 and H520. 1000 to 3000 cells were inoculated to 24-well plate, followed by addition of 1 mL culture medium well known to researchers in this field to each well, the cells were cultured in 5% incubator for 24 hours at 37° C., then the different concentration compounds and controls were added to each well. It should be noted that the added volume is not more than 0.5% of total volume. After completion of addition, the cells continued being cultured in incubator for one week, the culture medium was removed and washed by cold PBS of 1 mL once, and then fixed for 10 minutes at room temperature with 1% formalin, followed by wash with PBS of 1 mL. After fixation, stain was carried out with 0.1% crystal violet for 30 minutes. 0.1% crystal violet was recycled. The stained cells were washed gently with deionized water, dried at room temperature and kepted. The inhibition rate was calculated according to the foiling equation. The controls are Selumetinib (AZD6244), Gefitinib, Cisplatin. Inhibition rate=number of left cells each treatment/number of left cells of untreated control×100%

[2] = test system: lung cancer cell line H460; test: In vitro cell inhibition assay (crystal violet), lung cancer H460; format: cell-based, human
From the text: as §1, §2, §3

[3] = test system: lung cancer cell line H520; test: In vitro cell inhibition assay (crystal violet), lung cancer H520; format: cell-based, human
From the text: as §1, §2, §3

[4] = test system: human leukemia HL-60 cells; test: Proliferation inhibition of human leukemia HL-60 cells, MTT method; format: cell-based; conditions: 48 h incubation, OPTI-MEM medium
Protocol: The inhibition rate of human leukemia HL-60 cells was evaluated by regular MTT method. The human leukemia HL-60 cells were picked up from cell incubator, after washed for twice using PBS, cells were digested by 0.25% trypsin, and then add medium to terminate the digestion. After cells were collected using centrifuge and re-suspended, counting cells under inverted microscope and adding medium to make a density which was 5×10^4 cells/mL. After 100 μL aliquots were added to each well of 96-well microtiter plates, cells were cultured in 5% incubator for overnight at 37° C., then the different concentration compounds were added to each well. After incubation for 48 h, MTT solution was added to each well and plates were then incubated for 4 h. The MTT tetrazolium was reduced to formazan by living cells. Then the formazan crystals were dissolved though adding DMSO to each well. The absorbance was read at 570 nm with a microplate reader.

colon cancer HCT8 = test: In vitro cell inhibition assay, colon cancer HCT8; format: cell-based, human
From the text: as §1, §2

colon cancer HCT116 = test: In vitro cell inhibition assay, colon cancer HCT116; format: cell-based, human
From the text: as §1, §2

colon cancer RkO = test: In vitro cell inhibition assay, colon cancer RkO; format: cell-based, human
From the text: as §1, §2

[5] = test system: bladder cancer cell line J82; test: In vitro cell inhibition assay (crystal violet), bladder cancer J82; format: cell-based, human; conditions: Homo sapiens, read-out: Inhibition rate on human cancer cells
From the text: as §1, §2, §3

| SMILES | Inhibition rate on human cancer cells ([1]; A549, 2.5 μM) | Inhibition rate on human cancer cells ([1]; A549, 5.0 μM) | Inhibition rate on human cancer cells ([2]; H460, 2.5 μM) | Inhibition rate on human cancer cells ([2]; H460, 5.0 μM) | Inhibition rate on human cancer cells ([3]; H520, 2.5 μM) | Inhibition rate on human cancer cells ([3]; H520, 5.0 μM) | Proliferation inhibitory effect on human leukemia HL-60 cell (%) ([4]; concentration 1 μM) | Proliferation inhibitory effect on human leukemia HL-60 cell (%) ([4]; concentration 10 μM) | Proliferation inhibitory effect on human leukemia HL-60 cell (%) ([4]; concentration 100 μM) | Inhibition rate on human cancer cells ([1]; A549, 1.0 μM) | Inhibition rate on human cancer cells ([2]; H460, 1.0 μM) | Inhibition rate on human cancer cells ([3]; H520, 0.5 μM) | Inhibition rate on human cancer cells ([3]; H520, 1.0 μM) | Inhibition rate on human cancer cells ([3]; H520, 0.25 μM) | further results |
| --- | --- | --- | --- | --- | --- | --- | --- | --- | --- | --- | --- | --- | --- | --- | --- |
| COC=C(C(=O)OC)c1ccccc1COc1ccc2c(C(F)(F)F)cc(=O)oc2c1 [Compound 28-7] | 70% | 90% | 80% | 95% | 80% | 100% | 42.3% | 71.0% | 83.9% |  |  |  |  |  |  |
| CCCc1c(C)c2ccc(OCc3ccccc3C(=COC)C(=O)OC)cc2oc1=O [Compound 28-27] | 90% | 95% | 95% | 95% | 100% | 100% | 59.0% | 79.9% | 83.9% | 80% | 80% | 95% | 100% |  |  |
| COC=C(C(=O)OC)c1ccccc1COc1ccc2c(C)c(F)c(=O)oc2c1 [Compound 28-50] |  | 90% | 90% | 95% | 80% | 100% | 47.1% | 83.1% | 84.8% |  | 70% | 50% | 60% | 30% |  |
| COC=C(C(=O)OC)c1ccccc1COc1ccc2c3c(c(=O)oc2c1)CCCC3 [Compound 28-128] | 100% | 100% | 100% | 100% | 100% | 100% |  |  |  | 100% | 100% | 100% | 100% | 70% | Inhibition rate on human cancer cells ([1]; A549, 0.25 μM): 70%; Inhibition rate on human cancer cells ([1]; A549, 0.5 μM): 100%; Inhibition rate on human cancer cells ([2]; H460, 0.25 μM): 80%; Inhibition rate on human cancer cells ([2]; H460, 0.5 μM): 100%; Inhibition rate on human cancer cells (colon cancer HCT8; HCT 8, 0.25 μM): 95%; Inhibition rate on human cancer cells (colon cancer HCT8; HCT 8, 0.5 μM): 100%; Inhibition rate on human cancer cells (colon cancer HCT8; HCT 8, 1.0 μM): 100%; Inhibition rate on human cancer cells (colon cancer HCT8; HCT 8, 2.5 μM): 100%; Inhibition rate on human cancer cells (colon cancer HCT8; HCT 8, 5.0 μM): 100%; Inhibition rate on human cancer cells (colon cancer HCT116; HCT 116, 0.25 μM): 95%; Inhibition rate on human cancer cells (colon cancer HCT116; HCT 116, 0.5 μM): 100%; Inhibition rate on human cancer cells (colon cancer HCT116; HCT 116, 1.0 μM): 100%; Inhibition rate on human cancer cells (colon cancer HCT116; HCT 116, 2.5 μM): 100%; Inhibition rate on human cancer cells (colon cancer HCT116; HCT 116, 5.0 μM): 100%; Inhibition rate on human cancer cells (colon cancer RkO; 0.25 μM): 99%; Inhibition rate on human cancer cells (colon cancer RkO; 0.5 μM): 100%; Inhibition rate on human cancer cells (colon cancer RkO; 1.0 μM): 100%; Inhibition rate on human cancer cells (colon cancer RkO; 2.5 μM): 100%; Inhibition rate on human cancer cells (colon cancer RkO; 5.0 μM): 100% |
| CO/C=C(/C(=O)OC)c1ccccc1COc1ccc(C(F)(F)F)cc1Cl [compound B, flufenoxystrobin] |  |  |  |  |  |  |  |  |  |  |  |  |  |  | inhibition at 0.25 µM ([5]; J82, 0.25 μM): 0%; inhibition at 0.5 µM ([5]; J82, 0.5 μM): 50%; inhibition at 1 µM ([5]; J82, 1.0 μM): 90%; inhibition at 2.5 µM ([5]; J82, 2.5 μM): 95%; inhibition at 5 µM ([5]; J82, 5.0 μM): 100% |
